The text below walks through data of patent US20170312260A1 (LAUNX BIOMEDICAL CO., LTD., priority 2014, published 2017).

Each structure is given as a SMILES string. Read-outs that look alike come from different tables or passages of the source.

Assay type in all cases: cell-based
Data set [1] can be described thus: WST-1 cell viability analysis, HEK293. To be noted: human. The procedure: (§1) The cell numbers were counted and reseed as 2×10^6 in cell culture plate/flask. Then, the culture medium were added to a volume of 10 ml, and the cells were cultured for 2-3 days. Then, the cells were suspended for loading into 96-well plates. The number of cells was 3000 and the volume of the culture medium was 100 μl each well.
(§2) Removing the original culture medium from 96-well plate. Then add 100 μl of commercially drug at a concentration of 10 μM per well. After 72 hours, add the diluted WST-1 reagent to the well with 100 μl/well, and the diluted WST-1 reagent was acquired from the dilution of 9:1 medium and WST-1 stock reagent. Finally, the total volume of each well was 200 μl/well. Culture the 96-well plate at 37° C. for 30 to 90 minutes. Detecting and calculate the survival rate of each cancer cells with an ELISA reader at OD450 nm.
On the technique in general: Formazan colour is commonly taken as a measure of viable cells.

Data set [2] has as its system prostate cancer cell line PC-3. The experiment in a line: WST-1 cell viability analysis, PC-3. To be noted: Homo sapiens. The procedure:
as §1, §2

The subject of data set [3] is pancreatic cancer cell line AsPC-1. The experiment in a line: WST-1 cell viability analysis, AsPC-1. Conditions: Homo sapiens. The procedure: as §1, §2
Data set [4] concerns breast cancer cell line MDA-MB-231. The experiment in a line: WST-1 cell viability analysis, MDA-MB-231. To be noted: Homo sapiens.
Data set [5] has as its system A375 (amelanotic melanoma). The experiment in a line: WST-1 cell viability analysis, A375. To be noted: Homo sapiens, A-375, 10 μM, 72 hours, read-out: viability (survival rate) of A375 cells.
The subject of data set [6] is normal cells. The experiment in a line: Toxicity to normal cells (overall statement).
Description: Subculture the different types of cancer cell lines. The cancer cells includes lung cancer, gastric cancer, hepatic cancer, colon cancer, skin cancer, cervical cancer, prostate cancer, bladder cancer, breast cancer, leukemia, pancreatic cancer, ovarian cancer, tongue cancer, osteosarcoma, and renal cancer. The normal cells used in the control group included kidney cell (HEK293) and human bronchial epithelial cell line BEAS-2B (as shown in Table 1).
as §2

In data set [7] the test system is ovarian cancer cell line NIH-OVCAR-3. The experiment in a line: WST-1 cell viability analysis, NIH-OVCAR-3. To be noted: Homo sapiens, OVCAR-3, 10 μM, 72 hours, read-out: viability (survival rate) of NIH-OVCAR-3 cells.

Turning to `CC1=C(C(=O)OC(C)C)C(c2cccc([N+](=O)[O-])c2)C(C(=O)OC2CN(C(c3ccccc3)c3ccccc3)C2)=C(N)N1` (stereo not shown) [Azelnidipine], the viability at 72 h, 10 µM in data set [1] (HEK293 cells (normal kidney cell line), summary (HEK293), read-out: Inhibitory effect, Normal cell: Kidney cell) came out at 94.2%; in data set [1] (HEK293 normal kidney cells, average of 4 tests, read-out: Average viability of HEK293 cells) it was 94.2%. Moreover, the viability at 10 µM in data set [2] (PC-3, 10 μM, 72 hours, run PC-3-0524-10 min, read-out: viability (survival rate) of PC-3 cells) is 122%; in data set [2] (PC-3, 10 μM, 72 hours, run PC-3-0526-10 min, read-out: viability (survival rate) of PC-3 cells) it was 149%; in data set [2] (PC-3, 10 μM, 72 hours, run PC-3-0529-10 min, read-out: viability (survival rate) of PC-3 cells), 110%; in data set [2] (PC-3, 10 μM, 72 hours, run PC-3-0531-10 min, read-out: viability (survival rate) of PC-3 cells), 102%; in data set [2] (PC-3, 72 h, 10 μM, average of 4 tests, read-out: Average viability of PC-3 cells), 121%; in data set [3] (ASPC1, 10 μM, 72 hours, run 1-4-30 min, read-out: viability (survival rate) of AsPC-1 cells) it was 58.6%. Also, the viability at 10 µM was 104% in data set [3] (ASPC1, 10 μM, 72 hours, run 1-7-3-30 min, read-out: viability (survival rate) of AsPC-1 cells); 46.1% in data set [3] (ASPC1, 10 μM, 72 hours, run 1-7-4-30 min, read-out: viability (survival rate) of AsPC-1 cells); 13.7% in data set [3] (ASPC1, 10 μM, 72 hours, run 1-7-7-30 min, read-out: viability (survival rate) of AsPC-1 cells); 55.6% in data set [3] (ASPC1, 72 h, 10 μM, average of 4 tests, read-out: Average viability of AsPC-1 cells); 70.3% in data set [4] (MDA-MB-231, 10 μM, 72 hours, run 0612-10 min, read-out: viability (survival rate) of MDA-MB-231 cells); 89.7% in data set [4] (MDA-MB-231, 10 μM, 72 hours, run 0614-10 min, read-out: viability (survival rate) of MDA-MB-231 cells). In addition, the viability at 10 µM came out at 86.9% in data set [4] (MDA-MB-231, 72 h, 10 μM, average of the 3 printed tests, read-out: average viability of MDA-MB-231 cells); 124% in data set [5] (run 0602-30 min); 76% in data set [5] (run 0607-10 min); 105% in data set [5] (run 0609-10 min); 106% in data set [7] (run 7-3-30 min); 104% in data set [7] (run 7-4-30 min (fourth column)). The viability at 10 µM in data set [7] (run 7-4-30 min (second column)) turned out to be 99.1%. Besides, the “toxicity to normal cells (in words)” value in data set [6] is on record as “no toxicity or had little toxicity”.
